Converted amounts (≈) assume the structure as drawn.
Key:
Test in all cases: ≥ marks a high value that may be exact or a test limit, other limits are often not marked, values filed in µg/mL are converted to µM
Escherichia coli = system: Escherichia coli
[1] = system: Staphylococcus aureus ATCC 25923
[2] = system: Escherichia coli ATCC 25922
[3] = system: Pseudomonas aeruginosa ATCC 27853
Staphylococcus aureus = system: Staphylococcus aureus

Compound | MIC (Escherichia coli) | MIC [1] | MIC [2] | MIC [3] | MIC (Staphylococcus aureus)
CC[C@H](C)[C@H](NC(=O)[C@H](Cc1c[nH]c2ccccc12)NC(=O)[C@H](CCCCN)NC(=O)[C@@H]1CCCN1C(=O)[C@H](CC(C)C)NC(=O)[C@@H](N)CCCCN)C(=O)N[C@H](C(=O)N[C@@H](CCCCN)C(=O)N[C@H](C(=O)N[C@H](C(=O)N[C@@H](CC(N)=O)C(=O)N[C@@H](CCCCN)C(=O)N[C@@H](Cc1ccccc1)C(=O)N[C@H](C(=O)N[C@@H](CCCCN)C(=O)N[C@@H](CCCCN)C(=O)O)[C@@H](C)O)C(C)C)[C@@H](C)O)[C@@H](C)CC [KLPKWIIKTVNKFTKK] | 3.3 µM (≈ 6.51 µg/mL) | – | – | – | –
CSCC[C@H](NC(=O)[C@H](CCCN=C(N)N)NC(=O)[C@H](Cc1c[nH]c2ccccc12)NC(=O)[C@H](C)NC(=O)[C@H](Cc1c[nH]c2ccccc12)NC(=O)[C@H](CCCN=C(N)N)NC(=O)[C@H](CCCN=C(N)N)NC(=O)[C@H](C)NC(=O)[C@H](CCCCN)NC(=O)[C@@H](N)Cc1ccc(O)cc1)C(=O)N[C@@H](CCCCN)C(=O)O [YKARRWAWRMK] | – | 32.2 µM (≈ 50 µg/mL) | 32.2 µM (≈ 50 µg/mL) | 129 µM (≈ 200 µg/mL) | –
CSCC[C@H](NC(=O)CNC(=O)[C@H](C)NC(=O)[C@H](CCCCN)NC(=O)[C@H](C)NC(=O)[C@H](Cc1ccccc1)NC(=O)[C@H](CCCCN)NC(=O)[C@H](CCCCN)NC(=O)[C@H](CC(C)C)NC(=O)[C@@H](NC(=O)[C@H](CC(=O)O)NC(=O)[C@H](CC(C)C)NC(=O)[C@H](Cc1ccccc1)NC(=O)[C@H](CC(C)C)NC(=O)CN)[C@@H](C)O)C(=O)N[C@@H](CCC(=O)O)C(=O)N[C@@H](C)C(=O)N[C@H](C(=O)N[C@H](C(=O)N[C@@H](CC(N)=O)C(=O)N1CCC[C@H]1C(=O)N[C@@H](CCCCN)C(=O)O)[C@@H](C)O)C(C)C [GLFLDTLKKFAKAGMEAVTNPK] | 80 µM (≈ 190 µg/mL) | – | – | – | 80 µM (≈ 190 µg/mL)
CC[C@H](C)[C@H](NC(=O)[C@H](CC(=O)O)NC(=O)[C@@H](NC(=O)[C@@H](NC(=O)CN)C(C)C)C(C)C)C(=O)N[C@@H](CC(C)C)C(=O)N[C@@H](CCCCN)C(=O)NCC(=O)N[C@@H](C)C(=O)N[C@@H](C)C(=O)N[C@@H](CCCCN)C(=O)N[C@@H](CC(=O)O)C(=O)N[C@@H](CC(C)C)C(=O)N[C@@H](C)C(=O)NCC(=O)N[C@@H](Cc1cnc[nH]1)C(=O)O [GVVDILKGAAKDLAGH] | – | 20 µM (≈ 31.3 µg/mL) | 79.9 µM (≈ 125 µg/mL) | – | –
CC[C@H](C)[C@H](NC(=O)[C@H](CCCN=C(N)N)NC(=O)[C@@H](NC(=O)[C@H](CC(C)C)NC(=O)[C@H](CC(C)C)NC(=O)CN)[C@@H](C)O)C(=O)N[C@@H](CCCCN)C(=O)N[C@H](C(=O)N[C@@H](CC(C)C)C(=O)N[C@@H](CC(C)C)C(N)=O)[C@@H](C)O [GLLTRIKTLL] | – | – | 200 µM (≈ 225 µg/mL) | – | –
CC[C@H](C)[C@H](NC(=O)CN)C(=O)N[C@@H](CCSC)C(=O)N[C@@H](CC(=O)O)C(=O)N[C@@H](CO)C(=O)N[C@H](C(=O)N[C@@H](CCCCN)C(=O)N[C@@H](CC(N)=O)C(=O)N[C@H](C(=O)N[C@@H](C)C(=O)N[C@@H](CCCCN)C(=O)N[C@@H](CC(N)=O)C(=O)N[C@H](C(=O)N[C@@H](C)C(=O)NCC(=O)N[C@@H](CCC(N)=O)C(=O)N[C@@H](CC(C)C)C(=O)N[C@@H](CC(C)C)C(=O)N[C@@H](CC(=O)O)C(=O)N[C@@H](CCCCN)C(=O)N[C@@H](CC(C)C)C(=O)N[C@@H](CCCCN)C(=O)N[C@H]1CSSC[C@@H](C(=O)O)NC(=O)CNC(=O)[C@H]([C@@H](C)O)NC(=O)[C@H]([C@@H](C)CC)NC(=O)[C@H](CCCCN)NC1=O)[C@@H](C)CC)C(C)C)C(C)C [GIMDSVKNVAKNIAGQLLDKLKCKITGC] | – | – | 16 µM (≈ 47.4 µg/mL) | – | –
CC(C)C[C@H](NC(=O)[C@H](CCCCN)NC(=O)[C@H](CCCCN)NC(=O)[C@H](C)NC(=O)[C@H](CC(C)C)NC(=O)[C@@H](N)CCCCN)C(=O)N[C@@H](C)C(N)=O [KLAKKLA] | – | > 100 µM | > 100 µM | > 100 µM | –
CSCC[C@H](NC(=O)[C@H](CCCCN)NC(=O)[C@H](CCCCN)NC(=O)[C@H](CCCCN)NC(=O)[C@H](CCCN=C(N)N)NC(=O)[C@H](CCCN=C(N)N)NC(=O)[C@H](Cc1ccc(O)cc1)NC(=O)[C@@H](N)CCCN=C(N)N)C(=O)N[C@@H](CCCCN)C(=O)N[C@@H](CCCCN)C(=O)N[C@@H](C)C(=O)N[C@@H](CC(C)C)C(=O)N[C@@H](CCC(N)=O)C(=O)N[C@@H](Cc1ccc(O)cc1)C(N)=O [RYRRKKKMKKALQY] | – | – | > 100 µM | > 100 µM | –
CC(C)C[C@H](NC(=O)CN)C(=O)N[C@@H](CC(C)C)C(=O)N[C@@H](CCCCN)C(=O)N[C@@H](CCCN=C(N)N)C(N)=O [GLLKR] | – | > 52.9 µM | > 52.9 µM | – | –
CC(C)C[C@H](NC(=O)[C@H](Cc1ccccc1)NC(=O)[C@@H]1CCCN1C(=O)[C@H](Cc1c[nH]c2ccccc12)NC(=O)[C@H](C)NC(=O)[C@H](C)NC(=O)[C@@H]1CCCN1C(=O)[C@H](Cc1ccccc1)NC(=O)[C@H](CCCN=C(N)N)NC(=O)[C@H](CCCN=C(N)N)NC(=O)[C@@H](N)C(C)C)C(=O)N[C@@H](CCCN=C(N)N)C(=O)N[C@@H](CCCN=C(N)N)C(N)=O [VRRFPAAWPFLRR] | – | – | 90.5 µM (≈ 151 µg/mL) | – | –
CC[C@H](C)[C@H](NC(=O)[C@H](CCCCN)NC(=O)[C@@H](N)Cc1ccccc1)C(=O)N[C@@H](CCCCN)C(=O)N[C@@H](C)C(=O)N[C@@H](CO)C(=O)N[C@@H](CCCCN)C(=O)N[C@@H](CCCCN)C(=O)N[C@@H](CC(C)C)C(=O)N[C@@H](CC(C)C)C(=O)N[C@@H](CCCCN)C(=O)N[C@@H](CCCCN)C(=O)N[C@H](C(=O)NCC(=O)N[C@@H](CCCCN)C(=O)NCC(=O)N[C@@H](C)C(=O)N[C@@H](CC(C)C)C(=O)NCC(=O)N[C@@H](C)C(=O)N[C@H](C(=O)N[C@@H](C)C(=O)N[C@@H](CCCCN)C(=O)N[C@@H](C)C(=O)N[C@@H](CC(C)C)C(=O)N[C@@H](C)C(=O)N[C@@H](CCC(N)=O)C(=O)N[C@@H](CCC(N)=O)C(=O)N[C@@H](C)C(=O)O)C(C)C)C(C)C [FKIKASKKLLKKVGKGALGAVAKALAQQA] | – | – | – | 0.5 µM (≈ 1.48 µg/mL) | –
C[C@H](NC(=O)[C@H](C)NC(=O)[C@H](CCCCN)NC(=O)[C@H](CCCCN)NC(=O)[C@H](C)NC(=O)[C@H](C)NC(=O)[C@H](CCCCN)NC(=O)[C@H](C)NC(=O)[C@H](C)NC(=O)[C@H](CCCCN)NC(=O)[C@H](CCCCN)NC(=O)[C@H](C)NC(=O)[C@H](C)NC(=O)[C@@H](N)CCCCN)C(N)=O [KAAKKAAKAAKKAA] | – | > 256 µM | 47 µM (≈ 63.7 µg/mL) | – | –

More lines, now with the values ahead:

MIC (Escherichia coli) | MIC [1] | MIC [2] | MIC [3] | MIC (Staphylococcus aureus) | Compound
– | 4 µM (≈ 8.77 µg/mL) | 4 µM (≈ 8.77 µg/mL) | 4 µM (≈ 8.77 µg/mL) | – | CC(C)C[C@H](NC(=O)[C@H](CCCCN)NC(=O)CNC(=O)[C@H](CC(C)C)NC(=O)[C@H](CCCCN)NC(=O)[C@H](CCCCN)NC(=O)CNC(=O)[C@H](CC(C)C)NC(=O)[C@H](CCCCN)NC(=O)CNC(=O)[C@H](CC(C)C)NC(=O)[C@H](CCCCN)NC(=O)[C@H](CCCCN)NC(=O)CNC(=O)[C@H](CC(C)C)NC(=O)[C@@H](N)CCCCN)C(=O)NCC(=O)N[C@@H](CCCCN)C(=O)N[C@@H](CCCCN)C(=O)N[C@@H](CC(C)C)C(=O)NCC(N)=O [KLGKKLGKLGKKLGKLGKKLG]
– | – | 3.72 µM (≈ 4 µg/mL) | – | – | CC(C)C[C@H](NC(=O)[C@H](CCC(N)=O)NC(=O)[C@H](CCCCN)NC(=O)[C@H](CCCN=C(N)N)NC(=O)[C@H](Cc1ccccc1)NC(=O)[C@H](C)N)C(=O)N[C@@H](CCCCN)C(=O)N[C@@H](Cc1c[nH]c2ccccc12)C(=O)O [AFRKQLKW]
– | – | 3.1 µM (≈ 8.32 µg/mL) | – | – | CC[C@H](C)[C@H](NC(=O)CN)C(=O)NCC(=O)N[C@@H](CCCCN)C(=O)N[C@@H](Cc1ccccc1)C(=O)N[C@@H](CC(C)C)C(=O)N[C@@H](Cc1cnc[nH]1)C(=O)N[C@@H](CO)C(=O)N[C@@H](C)C(=O)N[C@@H](CCCCN)C(=O)N[C@@H](CCCCN)C(=O)N[C@@H](Cc1ccccc1)C(=O)NCC(=O)N[C@@H](CCCCN)C(=O)N[C@@H](C)C(=O)N[C@@H](Cc1ccccc1)C(=O)N[C@H](C(=O)NCC(=O)N[C@@H](CCC(=O)O)C(=O)N[C@H](C(=O)N[C@@H](CCSC)C(=O)N[C@@H](CC(N)=O)C(=O)N[C@@H](CO)C(=O)NCC(=O)NCC(=O)N[C@@H](CS)C(N)=O)[C@@H](C)CC)C(C)C [GIGKFLHSAKKFGKAFVGEIMNSGGC]
– | – | 8 µM (≈ 25.1 µg/mL) | – | – | CC[C@H](C)[C@H](NC(=O)[C@H](CO)NC(=O)[C@H](Cc1ccccc1)NC(=O)[C@H](CC(C)C)NC(=O)[C@H](C)N)C(=O)N[C@@H](CC(C)C)C(=O)N[C@@H](CCCN=C(N)N)C(=O)NCC(=O)N[C@@H](CC(C)C)C(=O)N[C@@H](CCCCN)C(=O)N[C@@H](CCCCN)C(=O)N[C@@H](CC(C)C)C(=O)NCC(=O)N[C@@H](CC(N)=O)C(=O)N[C@@H](CCSC)C(=O)NCC(=O)N[C@@H](CCC(N)=O)C(=O)N[C@@H](C)C(=O)N[C@@H](Cc1ccccc1)C(=O)N[C@H](C(=O)N[C@@H](CC(N)=O)C(=O)N[C@H]1CSSC[C@@H](C(=O)O)NC(=O)[C@H](CCCCN)NC(=O)[C@H](CCCCN)NC(=O)[C@H](Cc2ccc(O)cc2)NC(=O)[C@H]([C@@H](C)CC)NC(=O)[C@H](CCCCN)NC1=O)C(C)C [ALFSILRGLKKLGNMGQAFVNCKIYKKC]
– | 2.2 µM (≈ 5 µg/mL) | 4.4 µM (≈ 10 µg/mL) | – | – | CSCC[C@H](NC(=O)[C@H](CCCN=C(N)N)NC(=O)[C@H](Cc1c[nH]c2ccccc12)NC(=O)[C@H](C)NC(=O)[C@H](Cc1c[nH]c2ccccc12)NC(=O)[C@H](CCCN=C(N)N)NC(=O)[C@H](CCCN=C(N)N)NC(=O)[C@H](C)NC(=O)[C@H](CCCCN)NC(=O)[C@H](Cc1ccccc1)NC(=O)[C@H](Cc1c[nH]c2ccccc12)NC(=O)[C@H](C)NC(=O)[C@@H]1CCCN1)C(=O)N[C@@H](CC(C)C)C(=O)N[C@@H](CCCCN)C(=O)N[C@@H](CCCCN)C(=O)N[C@@H](C)C(=O)N[C@@H](C)C(=O)O [PAWFKARRWAWRMLKKAA]
– | 2.07 µM (≈ 2.5 µg/mL) | 8.28 µM (≈ 9.99 µg/mL) | 16.6 µM (≈ 20 µg/mL) | – | NC(=O)[C@H](CCCN=C(N)N)NC(=O)[C@H](Cc1c[nH]c2ccccc12)NC(=O)[C@H](Cc1ccc(O)cc1)NC(=O)[C@H](CCCN=C(N)N)NC(=O)[C@H](Cc1c[nH]c2ccccc12)NC(=O)[C@H](Cc1c[nH]c2ccccc12)NC(=O)[C@@H](N)CCCN=C(N)N [RWWRYWR]

Reference: DBAASP
